Results reported in ChEMBL document CHEMBL4610000, “Discovery of structurally distinct tricyclic M4 positive allosteric modulator (PAM) chemotypes” (Bioorg Med Chem Lett, 2020).
pEC50: −log10 of the molar value.

Key:
[1] = biological target: T1, Muscarinic acetylcholine receptor M4 (Homo sapiens, UniProt P08173); test: Positive allosteric modulation of human muscarinic M4 receptor expressed in CHO cells co-expressing Gqi5 assessed as increase in acetylcholine-induced calcium mobilization; assay type: functional, cell-based
T1 sequence (P08173 whole entry): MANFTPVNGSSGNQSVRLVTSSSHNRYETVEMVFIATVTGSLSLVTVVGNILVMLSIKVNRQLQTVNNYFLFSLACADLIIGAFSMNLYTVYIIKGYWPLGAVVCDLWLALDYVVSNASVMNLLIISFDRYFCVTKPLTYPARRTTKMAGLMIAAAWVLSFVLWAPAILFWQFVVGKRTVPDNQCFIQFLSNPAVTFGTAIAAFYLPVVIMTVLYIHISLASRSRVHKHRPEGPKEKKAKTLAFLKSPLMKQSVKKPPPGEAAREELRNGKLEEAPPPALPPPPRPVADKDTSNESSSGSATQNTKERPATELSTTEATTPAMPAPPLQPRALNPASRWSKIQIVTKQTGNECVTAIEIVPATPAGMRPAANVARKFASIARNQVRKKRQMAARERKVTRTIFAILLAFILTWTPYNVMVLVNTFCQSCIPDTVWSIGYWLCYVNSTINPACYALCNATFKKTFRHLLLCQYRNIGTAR

[2] = biological target: T2, Muscarinic acetylcholine receptor M4 (Homo sapiens) (UniProt P08173); test: Positive allosteric modulation of human muscarinic M4 receptor expressed in CHO cells co-expressing Gqi5 assessed as increase in acetylcholine-induced calcium mobilization relative to acetylcholine; assay type: functional, cell-based
T2 sequence (whole entry): T1 sequence (P08173 whole entry)

[3] = biological target: T3, Muscarinic acetylcholine receptor M4 (Rattus norvegicus, UniProt P08485); test: Positive allosteric modulation of rat muscarinic M4 receptor
T3 sequence (P08485 whole entry): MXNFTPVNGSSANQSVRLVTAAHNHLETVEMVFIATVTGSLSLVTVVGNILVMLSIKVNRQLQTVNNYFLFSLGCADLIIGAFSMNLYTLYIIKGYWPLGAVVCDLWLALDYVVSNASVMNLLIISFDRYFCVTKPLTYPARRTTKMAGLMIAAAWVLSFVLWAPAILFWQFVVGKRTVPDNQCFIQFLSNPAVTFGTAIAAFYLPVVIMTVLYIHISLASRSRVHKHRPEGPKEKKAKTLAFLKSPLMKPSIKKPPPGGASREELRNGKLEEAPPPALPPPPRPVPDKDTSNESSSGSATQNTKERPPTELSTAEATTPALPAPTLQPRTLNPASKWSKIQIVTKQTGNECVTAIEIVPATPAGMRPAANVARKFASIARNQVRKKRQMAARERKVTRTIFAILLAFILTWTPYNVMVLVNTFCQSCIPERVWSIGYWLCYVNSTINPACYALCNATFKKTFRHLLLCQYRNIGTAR

[4] = Intrinsic clearance in rat microsomes; assay type: ADME, Microsome
[5] = Intrinsic clearance in human microsomes; assay type: ADME, Microsome
[6] = Unbound fraction in rat plasma; assay type: ADME, cell-free
[7] = Unbound fraction in human plasma; assay type: ADME, cell-free
[8] = Unbound fraction in rat brain; assay type: ADME, tissue-based
[9] = Brain to plasma permeability coefficient, Kp of the compound in Sprague-Dawley rat at 0.2 mg/kg, iv measured after 0.25 hrs; assay type: ADME, organism-based; details: brain and plasma
[10] = Unbound brain-to-plasma concentration ratio in Sprague-Dawley rat at 0.2 mg/kg, iv measured after 0.25 hrs; assay type: ADME, organism-based; details: brain and plasma, read-out: K(p,uu,brain)

| SMILES | pEC50 [1] | %max [2] [%] | pEC50 [3] | other results |
| --- | --- | --- | --- | --- |
| Cc1c2c(ccc3c(NCc4ccc(C(=O)NC5CCCC5)cc4)ncnc32)nn1C | 6.62 | 100 | 6.77 | – |
| Cc1c2c(N)c(C(=O)NC3CN(c4ccc(F)c(F)c4)C3)ccc2nn1C | 6.21 | 85 | – | – |
| Cn1nnc2ccc(C(=O)NC3CN(c4ncc(Cl)cc4F)C3)c(N)c21 | 6.44 | 65 | 6.78 | – |
| COc1cc(N2CC(NC(=O)c3ccc4nn(C)c(C)c4c3N)C2)c(Cl)cn1 | 6.83 | 80 | 7.09 | CLint scaled [4]: 30 mL/min/kg; CLint scaled [5]: 9 mL/min/kg; fraction unbound [6]: 0.008; fraction unbound [7]: 0.045; fraction unbound [8]: 0.011; Kp at 0.25 h [9]: 0.18; Kp uu at 0.25 h [10]: 0.25 |
| Cc1c2c(ccc3c(NC4CCCC4)ncnc32)nn1C | 6.07 | 76 | – | – |
| Cc1c2c(ccc3c(NCc4ccc(F)c(F)c4)ncnc32)nn1C | 5.83 | 86 | – | – |
| Cc1c2c(ccc3c(NCc4ccc(C(C)(C)O)cc4)ncnc32)nn1C | 6.26 | 86 | – | %max ([2]; tested as the 2H-labelled form): 86% |
| COc1cc(N2CC(NC(=O)c3ccc4nnn(C)c4c3N)C2)c(Cl)cn1 | 6.43 | 71 | 6.63 | – |
| Cn1nnc2ccc3c(NC4CN(c5cc(Cl)ncc5Cl)C4)ncnc3c21 | 7.20 | 81 | 6.83 | CLint scaled [4]: 110 mL/min/kg; CLint scaled [5]: 21 mL/min/kg; fraction unbound [6]: 0.007; fraction unbound [7]: 0.021; fraction unbound [8]: 0.003; Kp at 0.25 h [9]: 0.25; Kp uu at 0.25 h [10]: 0.11 |
| Cc1c2c(ccc3c(N4CC5(COC5)C4)ncnc32)nn1C | 6.28 | 90 | – | – |
| Cc1c2c(N)c(C(=O)NC3CN(c4ncc(Cl)cc4F)C3)ccc2nn1C | 6.61 | 96 | 7.14 | – |
| Cc1c2c(ccc3c(N4CCCC4)ncnc32)nn1C | 6.20 | 74 | – | – |
| Cc1c2c(N)c(C(=O)NC3CN(c4ncccc4F)C3)ccc2nn1C | 5.45 | 103 | – | – |
| Cn1nnc2ccc(C(=O)NC3CN(c4ccc(C#N)cn4)C3)c(N)c21 | 5.76 | 60 | – | – |
| Cn1nnc2ccc(C(=O)NC3CN(c4cccc(Cl)n4)C3)c(N)c21 | 5.35 | 84 | – | – |
| COc1cc(N2CC(Nc3ncnc4c3ccc3nn(C)c(C)c34)C2)c(Cl)cn1 | 6.42 | 86 | 6.65 | CLint scaled [4]: 120 mL/min/kg; CLint scaled [5]: 55 mL/min/kg; fraction unbound [6]: 0.002; fraction unbound [7]: 0.007; fraction unbound [8]: 0.005; Kp at 0.25 h [9]: 1.55; Kp uu at 0.25 h [10]: 3.88 |
| Cn1nnc2ccc(C(=O)NC3CN(c4cc(Cl)ncc4Cl)C3)cc21 | – | – | 6.14 | CLint scaled [4]: 10 mL/min/kg; CLint scaled [5]: 21 mL/min/kg; Kp at 0.25 h [9]: < 0.05; Kp uu at 0.25 h [10]: < 0.11 |
| Cc1c2c(ccc3c(CC(C)(C)C)ncnc32)nn1C | 6.33 | 98 | – | – |
| Cn1nnc2ccc3c(NCc4ccc(C(C)(C)O)cc4)ncnc3c21 | 5.76 | 97 | – | – |

| SMILES | pEC50 [1] | %max [2] [%] | pEC50 [3] | other results |
| --- | --- | --- | --- | --- |
| COc1cc(N2CC(Nc3ncnc4c3ccc3nnn(C)c34)C2)c(Cl)cn1 | 5.83 | 93 | – | – |
| Cn1nnc2ccc3c(NC4CCCC4)ncnc3c21 | 6.09 | 69 | – | – |
| Cc1c2c(ccc3c(NC4CN(c5cc(Cl)ncc5Cl)C4)ncnc32)nn1C | 6.56 | 101 | 6.60 | CLint scaled [4]: 170 mL/min/kg; CLint scaled [5]: 120 mL/min/kg; fraction unbound [6]: 0.004; fraction unbound [7]: 0.008; fraction unbound [8]: 0.002; Kp at 0.25 h [9]: 0.21; Kp uu at 0.25 h [10]: 0.11 |
| Cc1c2c(N)c(C(=O)NC3CN(c4cc(Cl)ncc4Cl)C3)ccc2nn1C | 6.90 | 86 | 7.38 | CLint scaled [4]: 180 mL/min/kg; CLint scaled [5]: 50 mL/min/kg; fraction unbound [6]: 0.01; fraction unbound [7]: 0.034; fraction unbound [8]: 0.025; Kp at 0.25 h [9]: 0.12; Kp uu at 0.25 h [10]: 0.3 |
| Cc1c2c(N)c(C(=O)NC3CN(c4ncc(F)cn4)C3)ccc2nn1C | 5.21 | 90 | – | – |
| Cn1nnc2ccc(C(=O)NC3CN(c4ccnc(C(F)(F)F)c4)C3)c(N)c21 | 6.09 | 79 | – | – |
| Cc1c2c(N)c(C(=O)NC3CN(c4cccc(Cl)n4)C3)ccc2nn1C | 5.84 | 78 | – | – |
| Cc1c2c(ccc3c(NCc4ccc(C(=O)NCC(C)(C)C)cc4)ncnc32)nn1C | 6.02 | 90 | – | – |
| Cn1nnc2ccc(C(=O)NC3CN(c4cc(Cl)ncc4Cl)C3)c(N)c21 | 7.04 | 63 | 6.80 | CLint scaled [4]: 120 mL/min/kg; CLint scaled [5]: 27 mL/min/kg; fraction unbound [6]: 0.032; fraction unbound [7]: 0.084; fraction unbound [8]: 0.033; Kp at 0.25 h [9]: 0.17; Kp uu at 0.25 h [10]: 0.18 |
| Cn1nnc2ccc(C(=O)NC3CN(c4ncc(F)cc4Cl)C3)c(N)c21 | 5.44 | 80 | – | – |
| Cc1c2c(ccc3c(NCc4ccc(C(=O)NC5CCC5)cc4)ncnc32)nn1C | 6.32 | 100 | 6.49 | – |
| Cn1nnc2ccc(C(=O)NC3CN(c4ccc(F)c(F)c4)C3)c(N)c21 | 5.61 | 94 | – | – |
| COc1ccc(CNc2ncnc3c2ccc2nn(C)c(C)c23)cc1F | 6.33 | 95 | 6.74 | – |
| Cc1c2c(N)c(C(=O)NC3CN(c4ncc(C#N)cc4Cl)C3)ccc2nn1C | 6.80 | 93 | 6.89 | – |
| Cc1c2cc(C(=O)NC3CN(c4cc(Cl)ncc4Cl)C3)ccc2nn1C | – | – | 6.59 | CLint scaled [4]: 28 mL/min/kg; CLint scaled [5]: 33 mL/min/kg; Kp at 0.25 h [9]: 0.05; Kp uu at 0.25 h [10]: 0.04 |
| Cc1c2c(N)c(C(=O)NC3CN(c4ccc(C(F)(F)F)nc4)C3)ccc2nn1C | 6.86 | 80 | 6.95 | – |
| [2H]C([2H])(Nc1ncnc2c1ccc1nn(C)c(C)c12)c1ccc(C(C)(C)O)cc1 | 6.05 | – | – | – |
| COc1ccc(CNc2ncnc3c2ccc2nnn(C)c23)cc1F | 6.23 | 74 | – | – |
| Cn1nnc2ccc(C(=O)NC3CN(c4ncc(C#N)cc4Cl)C3)c(N)c21 | 6.34 | 83 | – | – |
